Data: patent publication US20200163984A1, “USE OF ISOVALERYL SPIRAMYCIN I, II AND/OR III IN MANUFACTURING MEDICAMENT FOR TREATING AND/OR PREVENTING TUMOR, AND MEDICAMENT” (SHENYANG FUYANG PHARMACEUTICAL TECHNOLOGY CO., LTD., priority 2017, published 2020)

How the values were obtained:
[1] = test system: transplanted tumor of human cervical cancer cell HeLa; experiment: HeLa transplanted tumor in nude mice
Description: (§1) HeLa cells in a logarithmic growth phase were taken and subjected to a trypan blue exclusion experiment showing that the cell viability was more than 95%, then the cells were subjected to trypsinization, centrifugation, and supernatant removal. Then cell concentration was adjusted to 1×10^7/ml with matrigel, then each nude mouse was inoculated subcutaneously with 0.2 ml of cells at its right armpit and recorded as the first day of inoculation. When the tumor grows to be greater than or equal to 100 mm^3, the mice were randomly divided into 11 groups with 6 mice in each group: a model group, a cyclophosphamide group, isovaleryl spiramycin I groups with doses of 25, 50 and 100 mg/kg, isovaleryl spiramycin II groups with doses of 25, 50 and 100 mg/kg, and isovaleryl spiramycin III groups with doses of 25, 50 and 100 mg/kg. Each group was continuously administered intragastrically for 30 days with a dose of 20 ml/kg. The mice were sacrificed the next day after drug withdrawal and the indicators were tested. The long diameter and short diameter of the tumor, and the body weight of each mouse were recorded every 3 days from drug administration to nude mouse sacrifice.
(§2) The body weight of the nude mice and the long diameter (a) and short diameter (b) of the transplanted tumor were measured every 3 days, and the tumor volume (v), relative tumor volume (RTV) and relative tumor proliferation rate (T/C) are calculated respectively according to the following formulas, wherein V=a×b^2/2; RTV=V/V0 (V0 is the tumor volume before administration, V is the tumor volume before sacrifice), and T/C (%)=treatment group RTV/model control group RTV×100%.
(§3) Each mouse was weighed and sacrificed. After the tumor was completely stripped off from the body of the mouse, the non-tumor tissues such as blood stains and fat were removed to weigh the tumor and calculate the tumor growth inhibition rate. The average tumor weight of each group of mice is used as an indicator of efficacy. Tumor growth inhibition rate (%)=(1−the average tumor weight of the treatment group/the average tumor weight of the model group)×100%.

[2] = test system: transplanted tumor of human renal cell adenocarcinoma cell 769-P; experiment: 769-P transplanted tumor in nude mice
Description: as §1, with “Then” for “HeLa cells in a logarithmic growth phase were taken and subjected to a trypan blue exclusion experiment showing that the cell viability was more than 95%, then the cells were subjected to trypsinization, centrifugation, and supernatant removal. Then”, “the” for “the body”
as §2, §3

[3] = Spleen index of A549 lung cancer tumor-bearing mice; details: for Spleen Index (%): n = 6
[4] = HeLa, high dose (100 mg/kg in method) i.g. 30 days
[5] = HeLa, low dose (25 mg/kg in method) i.g. 30 days
[6] = HeLa, medium dose (50 mg/kg in method) i.g. 30 days
[7] = 769-P, high dose (100 mg/kg in method) i.g. 30 days
[8] = 769-P, low dose (25 mg/kg in method) i.g. 30 days
[9] = 769-P, medium dose (50 mg/kg in method) i.g. 30 days

## O=P1(N(CCCl)CCCl)NCCCO1 (stereo not shown) [Cyclophosphamide, cyclophosphamide, reference compound]
[1]; HeLa nude mice, 30 mg/kg
  Inhibition Rate (%): 65.74%
  Relative Tumor Proliferation Rate (T/C): 36.17%
  Relative Tumor Volume (RTV): 6.00 ± 1.35
  Tumor Weight: 0.66 ± 0.13 g
[1]; HeLa nude mice, 30 mg/kg, d1
  Body Weight (g) (d1): 21.10 ± 0.69 g
  Tumor Volume (mm3) (d 1): 127.17 ± 35.82 mm3
[1]; HeLa nude mice, 30 mg/kg, d30
  Body Weight (g) (d30): 19.73 ± 1.22 g
  Tumor Volume (mm3) (d30): 724.89 ± 53.90 mm3
[2]; 769-P nude mice, 30 mg/kg
  Inhibition Rate (%): 70.52%
  Relative Tumor Proliferation Rate (T/C): 35.34%
  Relative Tumor Volume (RTV): 6.52 ± 0.90
  Tumor Weight: 0.6 ± 0.03 g
[2]; 769-P nude mice, 30 mg/kg, d1
  Body Weight (g) (d1): 21.61 ± 1.00 g
  Tumor Volume (mm3) (d 1): 107.92 ± 15.94 mm3
[2]; 769-P nude mice, 30 mg/kg, d30
  Body Weight (g) (d30): 21.58 ± 0.81 g
  Tumor Volume (mm3) (d30): 704.00 ± 45.50 mm3
[3]; A549 tumor-bearing mice, cyclophosphamide, P<0.01
  spleen index compared with the control group: significantly lower
[3]; dose 26 mg/kg
  Spleen Index (%): 0.21 ± 0.07 %

## COC1C(OC(C)=O)CC(=O)OC(C)CC=CC=CC(OC2CCC(N(C)C)C(C)O2)C(C)CC(CC=O)C1OC1OC(C)C(OC2CC(C)(O)C(OC(=O)CC(C)C)C(C)O2)C(N(C)C)C1O (stereo not shown) [Isovaleryl spiramycin II, isovaleryl spiramycin II]
[1]; HeLa nude mice, 12.5 mg/kg
  Inhibition Rate (%): 30.67%
  Relative Tumor Proliferation Rate (T/C): 68.55%
  Relative Tumor Volume (RTV): 11.36 ± 2.90
  Tumor Weight: 1.34 ± 0.60 g
[1]; HeLa nude mice, 12.5 mg/kg, d1
  Tumor Volume (mm3) (d 1): 115.41 ± 23.27 mm3
[1]; HeLa nude mice, 12.5 mg/kg, d30
  Tumor Volume (mm3) (d30): 1301.28 ± 391.77 mm3
[1]; HeLa nude mice, 25 mg/kg
  Inhibition Rate (%): 42.90%
  Relative Tumor Proliferation Rate (T/C): 56.07%
  Relative Tumor Volume (RTV): 9.30 ± 1.74
  Tumor Weight: 1.10 ± 0.62 g
[1]; HeLa nude mice, 25 mg/kg, d1
  Tumor Volume (mm3) (d 1): 125.04 ± 20.71 mm3
[1]; HeLa nude mice, 25 mg/kg, d30
  Tumor Volume (mm3) (d30): 1184.42 ± 369.49 mm3
[1]; HeLa nude mice, 50 mg/kg
  Inhibition Rate (%): 43.30%
  Relative Tumor Proliferation Rate (T/C): 45.96%
  Relative Tumor Volume (RTV): 7.62 ± 0.85
  Tumor Weight: 1.10 ± 0.61 g
[1]; HeLa nude mice, 50 mg/kg, d1
  Tumor Volume (mm3) (d 1): 111.84 ± 4.83 mm3
[1]; HeLa nude mice, 50 mg/kg, d30
  Tumor Volume (mm3) (d30): 851.58 ± 93.66 mm3
[1]; [4]
  Relative Tumor Proliferation Rate (T/C): 43.30%
  tumor growth inhibition rate: 43.30%
[1]; [5]
  Relative Tumor Proliferation Rate (T/C): 30.67%
  tumor growth inhibition rate: 30.67%
[1]; HeLa, low, medium and high doses, P<0.05
  tumor volume and relative tumor volume compared with the model group: significantly lower
[1]; [6]
  Relative Tumor Proliferation Rate (T/C): 42.90%
  tumor growth inhibition rate: 42.90%
[1]; mouse, in vivo
  mouse weight compared with the model group: no significant changes
[1]; mouse, in vivo, 12.5 mg/kg
  Body Weight (g) (d1): 20.92 ± 0.46 g
  Body Weight (g) (d30): 21.16 ± 0.51 g
[1]; mouse, in vivo, 25 mg/kg
  Body Weight (g) (d1): 20.87 ± 0.34 g
  Body Weight (g) (d30): 21.25 ± 0.55 g
[1]; mouse, in vivo, 50 mg/kg
  Body Weight (g) (d1): 20.77 ± 0.43 g
  Body Weight (g) (d30): 21.09 ± 0.36 g
[2]; 769-P nude mice, 25 mg/kg
  Inhibition Rate (%): 38.29%
  Relative Tumor Proliferation Rate (T/C): 68.22%
  Relative Tumor Volume (RTV): 12.59 ± 5.32
  Tumor Weight: 1.27 ± 0.42 g
[2]; 769-P nude mice, 25 mg/kg, d1
  Tumor Volume (mm3) (d 1): 162.50 ± 59.24 mm3
[2]; 769-P nude mice, 25 mg/kg, d30
  Tumor Volume (mm3) (d30): 2045.85 ± 301.35 mm3
[2]; 769-P nude mice, 50 mg/kg
  Inhibition Rate (%): 47.61%
  Relative Tumor Proliferation Rate (T/C): 42.64%
  Relative Tumor Volume (RTV): 7.87 ± 2.29
  Tumor Weight: 1.3 ± 0.23 g
[2]; 769-P nude mice, 50 mg/kg, d1
  Tumor Volume (mm3) (d 1): 193.10 ± 35.41 mm3
[2]; 769-P nude mice, 50 mg/kg, d30
  Tumor Volume (mm3) (d30): 1519.68 ± 239.38 mm3
[2]; 769-P nude mice, 100 mg/kg
  Inhibition Rate (%): 61.79%
  Relative Tumor Proliferation Rate (T/C): 34.76%
  Relative Tumor Volume (RTV): 6.42 ± 0.99
  Tumor Weight: 0.79 ± 0.06 g
[2]; 769-P nude mice, 100 mg/kg, d1
  Tumor Volume (mm3) (d 1): 109.14 ± 10.13 mm3
[2]; 769-P nude mice, 100 mg/kg, d30
  Tumor Volume (mm3) (d30): 700.14 ± 100.08 mm3
[2]; [7]
  Relative Tumor Proliferation Rate (T/C): 34.76%
  tumor growth inhibition rate: 61.79%
[2]; [8]
  Relative Tumor Proliferation Rate (T/C): 68.22%
  tumor growth inhibition rate: 38.29%
[2]; 769-P, low, medium and high doses, P<0.05
  tumor volume and relative tumor volume compared with the model group: significantly lower
[2]; [9]
  Relative Tumor Proliferation Rate (T/C): 42.64%
  tumor growth inhibition rate: 47.61%
[2]; mouse, in vivo
  mouse weight compared with the model group: no significant changes
[2]; mouse, in vivo, 25 mg/kg
  Body Weight (g) (d1): 22.17 ± 1.47 g
  Body Weight (g) (d30): 22.05 ± 0.71 g
[2]; mouse, in vivo, 50 mg/kg
  Body Weight (g) (d1): 22.07 ± 1.52 g
  Body Weight (g) (d30): 22.42 ± 0.54 g
[2]; mouse, in vivo, 100 mg/kg
  Body Weight (g) (d1): 21.96 ± 1.19 g
  Body Weight (g) (d30): 22.33 ± 0.41 g
[3]; dose 13 mg/kg
  Spleen Index (%): 0.35 ± 0.06%
[3]; dose 26 mg/kg
  Spleen Index (%): 0.32 ± 0.09%
[3]; dose 52 mg/kg
  Spleen Index (%): 0.37 ± 0.06%
